Laboratory results: paper PMC6920827, “Characterization of the Expression and Functions of Two Odorant-Binding Proteins of Sitophilus zeamais Motschulsky (Coleoptera: Curculionoidea)” (Insects, 2019)
Entries after “also recorded” stand apart in the source; their conditions may differ. Read-outs that look alike come from different tables or passages of the source.

Tests used:
SzeaOBP1 = SzeaOBP1 (Sitophilus zeamais, UniProt A0A4P9CZ78); assay: Fluorescence competitive binding assay (1-NPN probe) with recombinant SzeaOBP1; settings: for binding to SzeaOBP1, in words: fluorescence competitive binding
SzeaOBP1, sequence (A0A4P9CZ78 entry or part of it): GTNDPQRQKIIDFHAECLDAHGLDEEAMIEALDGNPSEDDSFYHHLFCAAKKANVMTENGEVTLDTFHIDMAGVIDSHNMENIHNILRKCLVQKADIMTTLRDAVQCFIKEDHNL
Procedure: (§1) Emission fluorescence spectra were recorded on a Fluoromax-4500 fluorescence spectrophotometer (Hitachi, Tokyo, Japan) at room temperature in right-angle configuration, with a 1 cm light-path quartz cuvette and 5 nm slits for both excitation and emission. The protein was dissolved in 50 mM Tris-HCl buffer (pH 7.4), and ligands were added as 1 mM methanol solutions. A methanol solution of N-Phenyl-1-naphthylamine (1-NPN) (1 mM) was used as the fluorescent probe, and chromatography-grade methanol was used as the solvent. For determination of the binding constants of the SzeaOBPs with the probe, the excitation wavelength was set at 337 nm, and the emission wavelength was increased from 370 to 500 nm for scanning. The target SzeaOBP proteins were diluted in Tris-HCl buffer (pH 7.4) to a final concentration of 2 μM. After the sample was added, the fluorescence intensity was allowed to stabilize (approximately 15 s), and the maximum fluorescence intensity was recorded; the binding constant between the protein and probe was determined. This process was repeated three times for each sample. Then, the ligands (odorant standard samples) were diluted with pure methanol for competitive binding analysis. The final concentration of each ligand was […]. The final concentration of ligands in the colorimetric dish increased by 2 μM upon adding the ligands one by one. […] The binding constants between the target SzeaOBP proteins and the ligands were determined. The fluorescence intensity was measured by adding 50 mM Tris-HCl buffer, SzeaOBP protein, and the fluorescence probe 1-NPN to the colorimetric dish for fluorescence measurement. The final concentration was 2 μM. When the fluorescence intensity was stable, the maximum fluorescence intensity was recorded, and then the ligands dissolved in methanol were added to the colorimetric dish one by one. The concentration increased from 2 μM, and the changes in fluorescence intensity were recorded. Each measurement was repeated three times.
(§2) To calculate the binding constants, the fluorescence intensity and ligand concentration were plotted using GraphPad Prism 5. Assuming that 1-NPN binds to the protein at a 1:1 ratio and that the protein was 100% active, the curve was linearized using a Scatchard plot.

SzeaOBP28 = SzeaOBP28 (Sitophilus zeamais, UniProt A0A4V1GPX2); assay: Fluorescence competitive binding assay (1-NPN probe) with recombinant SzeaOBP28; settings: for binding to SzeaOBP28, in words: fluorescence competitive binding
SzeaOBP28, sequence (A0A4V1GPX2 entry or part of it): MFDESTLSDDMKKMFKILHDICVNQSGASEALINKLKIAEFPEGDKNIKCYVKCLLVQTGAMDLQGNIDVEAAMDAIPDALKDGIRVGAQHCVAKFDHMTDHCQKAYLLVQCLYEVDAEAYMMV
Procedure: as §1, §2

adult S. zeamais = assay: Behavioural experiment in a Y-tube olfactometer, normal adults; assay type: in vivo, Sitophilus zeamais; settings: normal insects, 10 min observation
Procedure: The behavioral experiments were designed to test the results for selected odorants. The odorant compounds used in behavioral experiments are from Table 1. To avoid the effects of temperature and light on the experiment, the evaluations were performed in a constant temperature and humidity (CTH) room at 28 ± 1 °C and 80% relative humidity under dim light supplied by a red fluorescent tube with no natural lighting. A Y-tube olfactometer system that was previously described by Yusuf and Takabayashi was used to test the attractiveness of different odorant treatments to adult maize weevils. The system comprised a central tube (10 cm long) and two lateral arms (each 15 cm long and 15 mm wide). The angles between the two arms were 75°. Each arm was connected to a glass chamber (200 mL capacity) holding the different odorants. The different parts of the device were connected in the following order: air pump, activated carbon filter, distilled water humidifier, odorant source device, gas flow meter, and Y-tube olfactometer. The parts were connected by Teflon tubes. Airflow through both arms was generated by applying air pressure, and the air was purified using a charcoal-filled gas wash bottle. The airflow through the arms of the Y-tube (150 mL/min/arm) was adjusted by using flow metres, which were positioned between the flasks and the Y-tube. A clean Y-tube was used for each test to avoid carryover of odorants.
Before bioassays, according to the experimental requirements, the odorant source was placed in the odorant source device, which was then ventilated for 15 min so that the odorant filled the tube to ensure accuracy of the test results. The antennae and appendages of the selected insects were verified to be intact, and the insects were confirmed to be active. The insects were introduced from the base of the main arm of the Y-tube olfactometer. The selected odorant was used for the treatment group, and a blank was used for the control group. A single adult S. zeamais insect was introduced into the Y-tube olfactometer at the entrance of the stem, with a maximum observation duration of 10 min per beetle, and the responses were considered positive when the insects reached at least 2 cm along the arm connected to the test chambers. […] Insects were used only once and then discarded. Each odorant was used to test 30 adult maize weevils, and the number of male and female insects per test was the same. Three groups of experiments were repeated for three times.

[1] = calculated from IC50 with K1-NPN 8.590 μM, protein and 1-NPN 2 μM, Tris-HCl pH 7.4, read-out: Ki SzeaOBP1
[2] = displacement of 1-NPN, protein and 1-NPN 2 μM, Tris-HCl pH 7.4, read-out: IC50 SzeaOBP1
[3] = calculated from IC50 with K1-NPN 7.214 μM, protein and 1-NPN 2 μM, Tris-HCl pH 7.4, read-out: Ki SzeaOP28
[4] = displacement of 1-NPN, protein and 1-NPN 2 μM, Tris-HCl pH 7.4, read-out: IC50 SzeaOP28

Row | Ki (SzeaOBP1; [1]) [µM] | IC50 (SzeaOBP1; [2]) [µM] | Ki (SzeaOBP28; [3]) [µM] | IC50 (SzeaOBP28; [4]) [µM] | SMILES | further results
1 | > 51.2 | > 60 | > 49.2 | > 60 | CCCCCCCCCCCCCCC [Pentadecane] | 
2 | 6.94 ± 0.234 | 8.13 ± 0.274 | > 49.2 | > 60 | CCCCCCCCCO [Ligand 1-Nonanol, 1-Nonanol] | 
3 |  |  |  |  | CC(=O)CCC=C(C)C [6-Methyl-5-hepten-2-one] | IC50 (SzeaOBP1): 6.5 ± 0.15 µM; Ki (SzeaOBP1): 5.55 ± 0.128 µM; IC50 (SzeaOBP28): 45.8 ± 1.23 µM; Ki (SzeaOBP28): 37.6 ± 1.01 µM
4 | > 51.2 | > 60 | > 49.2 | > 60 | CCCCCCCCCC=O [Decanal] | binding to SzeaOBP1, in words (SzeaOBP1): did not bind; binding to SzeaOBP28, in words (SzeaOBP28): did not bind
5 |  |  |  |  | c1ccc(Nc2cccc3ccccc23)cc1 [Ligand 1-NPN, N-Phenyl-1-naphthylamine, reference compound] | Kd (SzeaOBP1): 8.59 µM; Kd (SzeaOBP28): 7.21 µM
6 | 2.75 ± 0.139 | 3.22 ± 0.162 | > 49.2 | > 60 | CCCCCCCCCCCCCCCCO [Cetanol] | binding to SzeaOBP1, in words (SzeaOBP1): extremely high binding affinity; behavioural response (attraction) of male and female adults vs blank control (adult S. zeamais): Significant differences
7 |  |  |  |  | O=Cc1ccccc1 [Benzaldehyde] | IC50 (SzeaOBP1): 5.2 ± 0.092 µM; Ki (SzeaOBP1): 4.44 ± 0.079 µM; IC50 (SzeaOBP28): > 60 µM; Ki (SzeaOBP28): > 49.2 µM
8 | 5.28 ± 0.333 | 6.18 ± 0.39 | > 49.2 | > 60 | Cc1occc(=O)c1O [Maltol (3-hydroxy-2-methyl-4-pyrone)] | 
9 |  |  |  |  | COCCOC(=O)c1ccccc1C(=O)OCCOC [Bis(methylglycol) phthalate, Bis(2-methoxyethyl) phthalate] | IC50 (SzeaOBP1): 4.76 ± 0.147 µM; Ki (SzeaOBP1): 4.07 ± 0.125 µM; IC50 (SzeaOBP28): 38.87 ± 0.2 µM; Ki (SzeaOBP28): 31.86 ± 0.164 µM
10 | 4.88 ± 0.103 | 5.71 ± 0.121 | > 49.2 | > 60 | CCCCC=O [Valeraldehyde] | behavioural response (attraction) of male and female adults vs blank control (adult S. zeamais): responded strongly
11 |  |  |  |  | CCCCCC=O [1-Pentanecarbaldehyde] | IC50 (SzeaOBP1): 6.07 ± 0.154 µM; Ki (SzeaOBP1): 5.18 ± 0.132 µM; IC50 (SzeaOBP28): 59.4 ± 1.21 µM; Ki (SzeaOBP28): 48.7 ± 0.852 µM
12 | 30.3 ± 0.798 | 35.5 ± 0.931 | > 49.2 | > 60 | C=CC(=C)CCC=C(C)C [Myrcene (stabilized with BHT)] | 
13 | 4.87 ± 0.111 | 5.71 ± 0.13 | > 49.2 | > 60 | CCCCCCC=O [Heptaldehyde] | 
14 | 6.51 ± 0.163 | 7.62 ± 0.191 | > 49.2 | > 60 | CC(C)CC=O [3-Methylbutanal] | 
15 | 4.42 ± 0.095 | 5.18 ± 0.111 | 48.2 ± 1.1 | 58.9 ± 1.34 | CCCCCCCCC=O [Nonanal] | 
16 | 4.67 ± 0.159 | 5.47 ± 0.186 | > 49.2 | > 60 | CCCCCCO [Ligand 1-Hexanol, 1-Hexanol] | 
17 |  |  |  |  | CCCC(C)=O [Ligand 2-Pentanone, 2-Pentanone] | IC50 (SzeaOBP1): 11.6 ± 0.312 µM; Ki (SzeaOBP1): 9.92 ± 0.267 µM; IC50 (SzeaOBP28): > 60 µM; Ki (SzeaOBP28): > 49.2 µM
18 | > 51.2 | > 60 | > 49.2 | > 60 | CCCCCCCCCCCCCCCC [N-Hexadecane, N-hexadecane] | 
19 | > 51.2 | > 60 | > 49.2 | > 60 | CCCCC/C=C\C/C=C\CCCCCCCC(=O)O [Linoleic acid] | binding to SzeaOBP1, in words (SzeaOBP1): did not bind; binding to SzeaOBP28, in words (SzeaOBP28): did not bind
20 | 24.2 ± 1.78 | 28.3 ± 2.08 | 40.8 ± 1.41 | 49.7 ± 1.72 | CCCCCCCCCCCCCCCC(=O)O [Palmitic Acid, Palmitic acid] | 
21 | 15.7 ± 0.717 | 18.4 ± 0.84 | > 49.2 | > 60 | CC(=O)O [Acetic acid (glacial)] | 
22 | 4.2 ± 0.087 | 4.92 ± 0.102 | > 49.2 | > 60 | CCC(C)C=O (stereo not drawn) [2-Methylbutyraldehyde] | behavioural response (attraction) of male and female adults vs blank control (adult S. zeamais): Significant differences
23 |  |  |  |  | COc1cc(C=O)ccc1O [4-Hydroxy-3-methoxybenzaldehyde] | IC50 (SzeaOBP1): 4.37 ± 0.203 µM; Ki (SzeaOBP1): 3.73 ± 0.173 µM; IC50 (SzeaOBP28): 24.7 ± 2.34 µM; Ki (SzeaOBP28): 20.2 ± 1.92 µM; binding to SzeaOBP28, in words (SzeaOBP28): pronounced binding affinity; behavioural response (attraction) of male and female adults vs blank control (adult S. zeamais): responded strongly; also recorded: stimulated activity in a significantly higher number of normal male and female weevils than the control treatment

Row | SMILES | Ki (SzeaOBP1; [1]) [µM] | IC50 (SzeaOBP1; [2]) [µM] | Ki (SzeaOBP28; [3]) [µM] | IC50 (SzeaOBP28; [4]) [µM] | further results
24 | CCCCCCCC=O [n-Octanaldehyde] | 3.22 ± 0.103 | 3.77 ± 0.12 | > 49.2 | > 60 | behavioural response (attraction) of male and female adults vs blank control (adult S. zeamais): no obvious effect
25 | CC(C)=O [Acetone] | 4.54 ± 0.172 | 5.32 ± 0.201 | 39.8 ± 0.731 | 48.6 ± 0.861 | 
26 | CC1=CC[C@@H]2C[C@H]1C2(C)C [(+)-a-Pinene] | > 51.2 | > 60 | > 49.2 | > 60 | binding to SzeaOBP1, in words (SzeaOBP1): did not bind; binding to SzeaOBP28, in words (SzeaOBP28): did not bind
27 | CC(C)C=O [Isobutyraldehyde] | 4.26 ± 0.138 | 4.99 ± 0.162 | > 49.2 | > 60 | 
28 | CCCCCCCCO [Capryl alcohol] | 6.67 ± 0.199 | 7.81 ± 0.233 | > 49.2 | > 60 | 
